From patent US20250282895A1, “PHARMACEUTICAL COMPOSITIONS OF CHEMOTHERAPEUTIC AGENTS BASED ON BETA-S[…]-AMINO ACID DERIVATIVES” (priority 2021, published 2025) come the findings set out here.

This data set can be described thus: Comparative stability, Formulation 4 (based on Treanda, mannitol). It is filed as physicochemical. The procedure: The stability of Compound (1c) either as the HCl salt or as the free base was compared to the stability of melphalan HCl and/or bendamustine HCl in various pharmaceutical formulations and at different concentrations and at temperatures of 0° C. or 25° C.
The stability of the compounds in the pharmaceutical formulations was determined at concentrations within the range from 0.4 mg/mL to 0.5 mg/mL, from 0.9 mg/mL to 1.1 mg/mL, and from 1.8 mg/mL to 2.1 mg/mL.
The amount of the active pharmaceutical ingredient (API) (Compound (1c), melphalan or bendamustine) in the pharmaceutical formulations at different times during storage was determined using HPLC/UV as described in detail for Example 4 and Example 5.
Treanda® is an injectable formulation of bendamustine hydrochloride, 1H-benzimidazole-2-butanoic acid, 5-[bis(2-chloroethyl)amino]-1-methyl-, 4-(5-(bis(2-chloroethyl)amino)-1-methyl-1H-benzo[d]imidazol-2-yl) butanoic acid monohydrochloride approved by the FDA. Treanda® for injection is provided in a vial containing either 25 or 100 mg of bendamustine HCl as a white to off-white lyophilized powder. Each vial contains either 25 mg or 100 mg of bendamustine hydrochloride and 42.5 mg or 170 mg of mannitol, USP, which is reconstituted in either 0.9% sodium chloride injection, USP, or 2.5% dextrose/0.45% sodium chloride solution injection, USP to a final concentration of 0.2 mg/mL-0.6 mg/mL and adjusted to a pH from 2.5 to 3.5.
A series of 12 mL glass vials each containing 12.5 mg (0.0317 mmol) of bendamustine mono-hydrochloride salt (C16H21C12N3O2·HCl, 394.72 g/mol; MedKoo, 200470) (corresponding to 11.3 mg of bendamustine as the free base) were prepared through weighing out the commercial compound into the vials. To each of the vials either containing bendamustine mono-hydrochloride salt was added 21.3 mg (0.117 mmol) of D-mannitol (C6H14O6, MW 182.17 g/mol; SigmaAldrich, M1902). The mixtures were dissolved in 2.0 mL of double distilled water (dd-H2O) (Arrowhead), the clear colorless solutions were frozen at −78° C. (dry ice/acetone bath), and the solvents were lyophilized off at about 100 mTorr within about 16 h to afford colorless solids.
A stock solution was prepared by dissolving 85.0 mg (0.255 mmol) of Compound (1c) (free base) and 170.4 mg of D-mannitol (0.935 mmol) (C6H14O6, MW 182.17 g/mol; SigmaAldrich, M1902), and 0.503 mL of 0.5072 M aq. HCl (0.255 mmol, 1.0 eq.) (Fluka, 318957) in about 16.0 mL of a mixture of acetonitrile/water (1:1, v/v) with vortexing in clean graduated glass cylinder (25 mL) to afford a stock solution of Compound (1c) as a mono-HCl salt of a concentration of 5.313 mg/mL and a D-mannitol concentration of 10.65 mg/mL. This solution was filtered through a 0.22 μm PTFE syringe filter into a clean 25 mL Erlenmeyer flask. Aliquots of 2.0 mL (2× 1.0 mL; 2× 5.313 mg) of this stock solution were rapidly pipetted into clean 12 mL scintillation vials. The aliquots were frozen at −78° C. (dry ice/acetone bath) and lyophilized at about 100 mTorr for about 16 hours to provide test vials each containing 11.8 mg (0.0319 mmol) of Compound (1c) mono-hydrochloride salt (mono-HCl salt) (corresponding to 10.6 mg of Compound (1c) as a free base) and 21.3 mg (0.117 mmol) of D-mannitol as a colorless powdery solid.
The materials in the vials were dissolved 2.5 mL of double-distilled water (dd-H2O) (Arrowhead) to provide clear colorless, non-viscous stock solutions of a concentration of 4.24 mg/mL of Compound (1c) as the monohydrochloride salt or 4.54 mg/mL of bendamustine as the mono-hydrochloride salt, respectively.
1.0 mL of the stock solution containing 4.24 mg/mL of Compound (1c) as the monohydrochloride salt was diluted with 9.0 mL of 0.9% saline to afford 10.0 mL of a test solution of a concentration of 0.424 mg/mL of Compound (1c) as the monohydrochloride salt and with a pH of about 4. […]

Where a name gives a salt, the structure may show the parent alone.

Regarding `Cc1ccc(N(CCCl)CCCl)cc1C[C@H](N)CC(=O)O` [Compound (1c)•HCl, (S)-3-amino-4-(5-(bis(2-chloroethyl)amino)-2-methylphenyl) butanoic acid mono hydrochloride salt], the “% API” value is reported as 92% (Formulation 4, 0° C., 0.5 hours, 0.4-0.5 mg/mL, pH 4-5 (bendamustine), pH 4 (Compound (1c)•HCl)); 92% (Formulation 4, 0° C., 0.5 hours, 0.9-1.1 mg/mL, pH 4); 93% (Formulation 4, 0° C., 0.5 hours, 1.8-2.1 mg/mL, pH 4); 78% (Formulation 4, 0° C., 2.0 hours, 0.4-0.5 mg/mL, pH 4-5 (bendamustine), pH 4 (Compound (1c)•HCl)); 73% (Formulation 4, 0° C., 2.0 hours, 0.9-1.1 mg/mL, pH 4); 80% (Formulation 4, 0° C., 2.0 hours, 1.8-2.1 mg/mL, pH 4). Moreover, the “% API” value runs as follows: (Formulation 4, 25° C., 0.5 hours, 0.4-0.5 mg/mL, pH 4-5 (bendamustine), pH 4 (Compound (1c)•HCl)) 95%; (Formulation 4, 25° C., 0.5 hours, 0.9-1.1 mg/mL, pH 4-5 (bendamustine), pH 4 (Compound (1c)•HCl)) 95%; (Formulation 4, 25° C., 0.5 hours, 1.8-2.1 mg/mL, pH 4-5 (bendamustine), pH 4 (Compound (1c)•HCl)) 92%; (Formulation 4, 25° C., 2.0 hours, 0.4-0.5 mg/mL, pH 4-5 (bendamustine), pH 4 (Compound (1c)•HCl)) 81%; (Formulation 4, 25° C., 2.0 hours, 0.9-1.1 mg/mL, pH 4-5 (bendamustine), pH 4 (Compound (1c)•HCl)) 81%; (Formulation 4, 25° C., 2.0 hours, 1.8-2.1 mg/mL, pH 4-5 (bendamustine), pH 4 (Compound (1c)•HCl)) 75%.
